Data reported in ChEMBL document CHEMBL1121811, “Synthesis and biological evaluation of certain 2'-deoxy-beta-D-ribo- and -beta-D-arabinofuranosyl nucleosides of purine-6-carboxamide and 4,8-diaminopyrimido[5,4-d]pyrimidine” (1981).

How the values were obtained:
Mus musculus [1] = test: Compound was tested for the ability to suppress humoral immune response in mice treated for days 0,+1,and +2 at dose of 25 mg/kg (control = 7.0); assay type: functional
Mus musculus [2] = test: Compound was tested for the ability to suppress humoral immune response in mice treated for days 0,+1,and +2 at dose of 25 mg/kg (control = 8.9)
Mus musculus [3] = test: Compound was tested for the ability to suppress humoral immune response in mice treated for days -2,-1,and 0 at dose of 50 mg/kg (control = 8.1); assay type: functional
Mus musculus [4] = test: Compound was tested for the ability to suppress humoral immune response in mice treated for days 0,+1,and +2 at dose of 50 mg/kg (control = 8.9); assay type: functional
Mus musculus [5] = test: Compound was tested for the ability to suppress humoral immune response in mice treated for days 0,+1,and +2 at dose of 100 mg/kg (control = 8.9); assay type: functional
Mus musculus [6] = test: Compound was tested for the ability to suppress humoral immune response in mice treated for days -2,-1,and 0 at dose of 100 mg/kg (control = 8.1); assay type: functional
Mus musculus [7] = test: Compound was tested for the ability to suppress humoral immune response in mice treated for days -2,-1,and 0 at dose of 50 mg/kg (control = 10.3); assay type: functional
Mus musculus [8] = test: Compound was tested for the ability to suppress humoral immune response in mice treated for days 0,+1,and +2 at dose of 50 mg/kg (control = 6.5); assay type: functional
Mus musculus [9] = test: Compound was tested for the ability to suppress humoral immune response in mice treated for days 0,+1,and +2 at dose of 100 mg/kg (control = 9.0); assay type: functional
Mus musculus [10] = test: Compound was tested for the ability to suppress humoral immune response in mice treated for days 0,+1,and +2 at dose of 180 mg/kg (control = 9.1); assay type: functional
Mus musculus [11] = test: Compound was tested for the ability to suppress humoral immune response in mice treated for days -2,-1,and 0 at dose of 100 mg/kg (control = 10.3); assay type: functional
Mus musculus [12] = test: Compound was tested for the ability to suppress humoral immune response in mice treated for days 0,+1,and +2 at dose of 100 mg/kg (control = 6.5); assay type: functional
Mus musculus [13] = test: Compound was tested for the ability to suppress humoral immune response in mice treated for days 0,+1,and +2 at dose of 180 mg/kg (control = 9.0); assay type: functional
Mus musculus [14] = test: Compound was tested for the ability to suppress humoral immune response in mice treated for days 0,+1,and +2 at dose of 50 mg/kg (control = 9.0); assay type: functional
Mus musculus [15] = test: Compound was tested for the ability to suppress humoral immune response in mice treated for days -2,-1,and 0 at dose of 100 mg/kg (control = 9.5); assay type: functional
Mus musculus [16] = test: Effect of compound on induction of cellular immunity was studied at different dose of 50 mg/kg. (control = 12+/-0.21); assay type: functional
Mus musculus [17] = test: Compound was tested for the ability to suppress skin-graft rejection in mice treated daily from day of graft transfer until rejection at dose of 75 mg/kg (control = 12+/-0.21)
Mus musculus [18] = test: Compound was tested for the ability to suppress skin-graft rejection in mice treated daily from day of graft transfer until rejection at dose of 100 mg/kg (control = 12+/-0.21)
Mus musculus [19] = test: Compound was tested for the ability to suppress humoral immune response in mice treated for days 0,+1,and +2 at dose of 100 mg/kg (control = 10.0)
Mus musculus [20] = test: Compound was tested for the ability to suppress humoral immune response in mice treated for days -2,-1,and 0 at dose of 25 mg/kg (control = 9.5); assay type: functional
Mus musculus [21] = test: Effect of compound on induction of cellular immunity was studied at different dose of 15 mg/kg (control = 12+/-0.2); assay type: functional

## Nc1ccn([C@@H]2O[C@H](CO)[C@@H](O)[C@@H]2O)c(=O)n1 [CYTARABINE]
Mus musculus [1]
  Mean hemagglutination titers: 3.4

## Sc1ncnc2nc[nH]c12 [MERCAPTOPURINE ANHYDROUS]
Mus musculus [2]
  Mean hemagglutination titers: 7.5
Mus musculus [3]
  Mean hemagglutination titers: 7.5
Mus musculus [4]
  Mean hemagglutination titers: 7.2
Mus musculus [5]
  Mean hemagglutination titers: 4.1
Mus musculus [6]
  Mean hemagglutination titers: 3.4

## OC[C@H]1O[C@@H](n2cnc3c(S)ncnc32)[C@H](O)[C@@H]1O [THIOINOSINE]
Mus musculus [7]
  Mean hemagglutination titers: 8.3
Mus musculus [3]
  Mean hemagglutination titers: 8.5
Mus musculus [8]
  Mean hemagglutination titers: 7.2
Mus musculus [9]
  Mean hemagglutination titers: 7.4
Mus musculus [10]
  Mean hemagglutination titers: 8.7
Mus musculus [11]
  Mean hemagglutination titers: 8.3
Mus musculus [6]
  Mean hemagglutination titers: 8.4
Mus musculus [12]
  Mean hemagglutination titers: 7.2
Mus musculus [13]
  Mean hemagglutination titers: 6.4
Mus musculus [14]
  Mean hemagglutination titers: 9.1

## Nc1ncnc2c(N[C@@H]3O[C@H](CO)[C@@H](O)[C@@H]3O)ncnc12
Mus musculus [15]
  Mean hemagglutination titers: 8.7
Mus musculus [16]
  mean survival time: 14
Mus musculus [17]
  mean survival time: 13
Mus musculus [18]
  mean survival time: 16
Mus musculus [19]
  Mean hemagglutination titers: 11

## Nc1ncnc2c(N[C@@H]3O[C@H](CO)[C@@H](O)[C@H]3O)ncnc12
Mus musculus [1]
  Mean hemagglutination titers: 0
Mus musculus [20]
  Mean hemagglutination titers: 8.5
Mus musculus [21]
  mean survival time: 21
